Entries after “also recorded” stand apart in the source; their conditions may differ. Where a name gives a salt, the structure may show the parent alone.
Tests used:
[1] = system: extracellular monoaminergic transmitter levels; test: in vivo brain microdialysis in prefrontal cortical and striatal brain areas of freely-moving rats; design: species or system rat
Procedure: Brain dialysates were collected from male Sprague-Dawey rats, which had been chronically implanted with cortical and striatal microdialysis guide cannulae and probes. The effects of different doses of test compound (10 and 30 mg/kg, administered subcutaneously) or vehicle (saline, 0.9% NaCl) were evaluated in three 50 baseline samples and eight consecutive 50 minute post-administration samples. The levels of dopamine, norepinephrine and serotonin for the two different brain areas were analyzed using HPLC/PCD analysis to determine any effects of the compound.
In FIGS. 4 and 5, results are expressed as the average percentage change compared to the individual's average baseline value. The arrow indicates the time of administration of test compound. The average value (and corresponding S.E.M.) are shown for each 50 minute sample period of n=12 rats for each group (NB: individual data points may be based on fewer samples owing to incidental loss of dialysate samples).

[2] = molecular target: T1, human serotonin transporter (Homo sapiens, UniProt P31645); test: inhibition of [125I]RTI-55 binding to hSERT in HEK293 cell membranes; conditions: HEK-hSERT cells
T1 construct: expressed in transfected cells; host or cells: HEK293

[3] = molecular target: T2, human norepinephrine transporter (Homo sapiens, UniProt P23975); type: binding; conditions: HEK-hNET cells
T2 construct: expressed in transfected cells; host or cells: HEK293

[4] = molecular target: T3, human dopamine transporter (Homo sapiens, UniProt Q01959); test: inhibition of [125I]RTI-55 binding to hDAT in HEK293 cell membranes; conditions: HEK-hDAT cells
T3 construct: expressed in transfected cells; host or cells: HEK293

[5] = system: homozygous mutant dopamine transporter KO mice; test: spontaneous activity in the open field, dopamine transporter KO mice; type: in vivo, mouse
Procedure: Male and female wild-type and homozygous mutant dopamine transporter KO mice (n−10 mice/genotype/agent) were tested for spontaneous activity in the open field following a single injection of the vehicle or compound. […] All drugs, were given in a volume of 5 mL/kg. Animals were returned to the open field for an additional 90 min. Spontaneous activity was evaluated in an automated Omnitech Digiscan apparatus (Accuscan Instruments, Columbus, Ohio). Activity was summated at 5 min intervals over the 2 h period of testing. Horizontal activity or locomotion was Measured in terms of toe total distance covered in cm, vertical activity or rearing was expressed in terms of the total numbers of vertical beam breaks, and stereotypy was quantified in terms of repetitive breaks of a given beam or beams with intervals of less than 1 sec. For the analyses, 10 WT and 10 KO mice were run in each of the treatment groups with approximately equal numbers of males and females assigned to each group. Data were analyzed by the Statistical Package for Social Sciences programs (version 11.0 for Windows; SPSS Science, Chicago, Ill.). The results lot each dependent variable were analyzed by repeated analyses of variance. (RMANOVA) for within subjects effects (group differences over time) and between-subjects effects (tests of main effects and interactions). Bonferroni corrected pair-wise comparisons were used as the post-hoc tests. A p<0.05 was considered significant.

Long-Evans rats = test: reversal of a visual discrimination (operant, Phase II reversal training); type: in vivo, rat
Procedure: Forty adult male Long-Evans rats (Charles River Laboratories, Wilmington, Mass.) approximately 250 g at the start of training were used as subjects in this study. Each shipment of rats went through five-day isolation prior to introduction to the general population. Rats were allowed a minimum of one additional week acclimation before operant training began.
Test compound was dissolved in sterile 0.9% saline at 3.0, 10.0, and 30.0 mg/mL, D-amphetamine, the reference compound, was also dissolved in 0.9% sterile saline at 1.0 mg/mL of the amphetamine salt.
After operant training began, rats were housed individually. Access to food was restricted to 12-20 grams per day to maintain animals at 85-90% free feeding body weight (relative to non-restricted rats). Rats were never deprived of water and continued gain weight while in the study.
After animals reached the training criteria on Phase I of the study, they were designated to one of the treatment groups; groups were matched for performance (days to criterion per in Phase I. The study was a mixed design (dose levels×repeated training sessions). The five dose levels were 1, 3, and 10 mg/kg test compound, 0.9 percent saline (vehicle) and 1.0 mg/kg d-amphetamine sulfate (reference compound) all delivered intraperitoneal (IP) at 1.0 mL/kg.
Animals were trained in a set of 10 operant testing chambers (Med Associates) containing two retractable response levers on the front wall. There were two stimulus lights in the chamber, one situated over each lever. The food magazine is located between the two response levers on the front wall and food delivery is signaled with a magazine light. Retrieval of the food pellet is detected by a photosensor within the food magazine. Dim illumination of the chamber is provided by a houselight over the center of the front wall.
Initially animals were shaped to press a lever for food. During this phase, both levers were extended into the chamber and the animal was rewarded with a 45 mg pellet for pressing a lever. The use of a side bias is prevented by retracting a lever once it exceeds five presses beyond the number of presses on the opposite lever. After […] consecutive days with 100 lever presses subjects were moved to Phase I of the study. In this phase, animals had to learn to press the lever beneath the illuminated signal light. On each trial, one of the signal lights (randomly chosen) was illuminated for 1.0 sec prior to presentation of the levers (30.0 sec limited hold). […] After either a correct or incorrect press, or an omission, the levers were retracted for the duration of the variable inter-trial-interval (ITT; 5 s+/−2 s). After stable responding (two consecutive days better than 80% correct) was established in this phase, animals began training in the drug administration portion of the experiment (Phase II).
In Phase II, animals were divided into five groups matched on percent accuracy and number of trials to criterion. Animals in each group were dosed with one of three doses of test compound ([…], IP), amphetamine (1.0 mg/kg, IP), or with the vehicle (saline) one hour prior to behavioral training. In Phase II the discrimination was reversed from that of Phase I such that animals were now rewarded for pressing the lever distal to the cue light. Animals were dosed daily approximately 60 min prior to training. Training continued until ad animals achieved two consecutive days above 80% correct on the new discrimination.
Data were analyzed using SPSS 12.0 for Windows (SSPS Inc., Chicago, Ill.). A mixed between groups, repeated measures ANOVA was conducted cm response accuracy data. A simple one-way ANOVA was conducted on the trials to criteria data from Phase II.

wild-type mice = test: spontaneous activity in the open field, wild-type mice; type: in vivo, mouse; conditions: 2 mg/kg SC, relative to vehicle controls
Procedure: Male and female wild-type and homozygous mutant dopamine transporter KO mice (n−10 mice/genotype/agent) were tested for spontaneous activity in the open field following a single injection of the vehicle or compound. Mice were placed into the open field for 30 min and administered SC the vehicle (sterile water) 2 mg/kg amphetamine, or three concentrations of the test compound (10, 30, 100 mg/kg). All drugs, were given in a volume of 5 mL/kg. Animals were returned to the open field for an additional 90 min. Spontaneous activity was evaluated in an automated Omnitech Digiscan apparatus (Accuscan Instruments, Columbus, Ohio). Activity was summated at 5 min intervals over the 2 h period of testing. Horizontal activity or locomotion was Measured in terms of toe total distance covered in cm, vertical activity or rearing was expressed in terms of the total numbers of vertical beam breaks, and stereotypy was quantified in terms of repetitive breaks of a given beam or beams with intervals of less than 1 sec. For the analyses, 10 WT and 10 KO mice were run in each of the treatment groups with approximately equal numbers of males and females assigned to each group. Data were analyzed by the Statistical Package for Social Sciences programs (version 11.0 for Windows; SPSS Science, Chicago, Ill.). The results lot each dependent variable were analyzed by repeated analyses of variance. […]

[6] = 1.0 mg/kg IP daily (d-amphetamine sulfate), vs vehicle

T1 sequence (P31645 whole entry): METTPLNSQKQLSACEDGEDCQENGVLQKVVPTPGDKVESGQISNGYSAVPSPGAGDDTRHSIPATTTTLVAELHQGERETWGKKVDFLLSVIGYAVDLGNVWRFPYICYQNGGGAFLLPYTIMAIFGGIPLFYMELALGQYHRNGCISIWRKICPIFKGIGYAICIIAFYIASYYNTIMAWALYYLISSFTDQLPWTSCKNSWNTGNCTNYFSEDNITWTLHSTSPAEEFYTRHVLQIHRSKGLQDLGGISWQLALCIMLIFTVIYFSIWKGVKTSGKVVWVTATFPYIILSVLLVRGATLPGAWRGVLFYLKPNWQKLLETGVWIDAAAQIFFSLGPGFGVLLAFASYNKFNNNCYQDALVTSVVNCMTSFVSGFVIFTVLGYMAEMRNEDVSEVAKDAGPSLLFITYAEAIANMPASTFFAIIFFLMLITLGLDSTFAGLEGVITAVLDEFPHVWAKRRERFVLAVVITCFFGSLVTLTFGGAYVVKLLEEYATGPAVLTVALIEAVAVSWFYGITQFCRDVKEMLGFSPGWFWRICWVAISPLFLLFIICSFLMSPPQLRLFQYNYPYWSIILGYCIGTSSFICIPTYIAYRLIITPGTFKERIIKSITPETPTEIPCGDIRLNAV
T3 sequence (Q01959 whole entry): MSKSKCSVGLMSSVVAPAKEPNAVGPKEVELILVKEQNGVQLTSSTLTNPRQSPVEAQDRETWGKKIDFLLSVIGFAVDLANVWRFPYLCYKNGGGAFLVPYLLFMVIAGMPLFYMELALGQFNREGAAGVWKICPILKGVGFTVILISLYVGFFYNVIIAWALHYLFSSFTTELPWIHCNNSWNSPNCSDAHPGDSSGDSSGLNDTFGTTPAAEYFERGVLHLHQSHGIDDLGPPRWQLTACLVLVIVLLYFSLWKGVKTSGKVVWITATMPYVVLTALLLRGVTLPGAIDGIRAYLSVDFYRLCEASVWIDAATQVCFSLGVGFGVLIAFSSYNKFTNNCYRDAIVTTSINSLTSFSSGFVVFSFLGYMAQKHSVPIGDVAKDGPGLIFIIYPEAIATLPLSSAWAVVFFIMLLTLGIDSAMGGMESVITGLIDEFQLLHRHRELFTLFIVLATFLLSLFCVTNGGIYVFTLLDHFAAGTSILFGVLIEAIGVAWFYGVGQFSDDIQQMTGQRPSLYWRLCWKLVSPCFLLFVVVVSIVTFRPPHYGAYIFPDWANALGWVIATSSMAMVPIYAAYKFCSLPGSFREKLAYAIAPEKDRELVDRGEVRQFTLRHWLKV
T2 sequence (P23975 whole entry): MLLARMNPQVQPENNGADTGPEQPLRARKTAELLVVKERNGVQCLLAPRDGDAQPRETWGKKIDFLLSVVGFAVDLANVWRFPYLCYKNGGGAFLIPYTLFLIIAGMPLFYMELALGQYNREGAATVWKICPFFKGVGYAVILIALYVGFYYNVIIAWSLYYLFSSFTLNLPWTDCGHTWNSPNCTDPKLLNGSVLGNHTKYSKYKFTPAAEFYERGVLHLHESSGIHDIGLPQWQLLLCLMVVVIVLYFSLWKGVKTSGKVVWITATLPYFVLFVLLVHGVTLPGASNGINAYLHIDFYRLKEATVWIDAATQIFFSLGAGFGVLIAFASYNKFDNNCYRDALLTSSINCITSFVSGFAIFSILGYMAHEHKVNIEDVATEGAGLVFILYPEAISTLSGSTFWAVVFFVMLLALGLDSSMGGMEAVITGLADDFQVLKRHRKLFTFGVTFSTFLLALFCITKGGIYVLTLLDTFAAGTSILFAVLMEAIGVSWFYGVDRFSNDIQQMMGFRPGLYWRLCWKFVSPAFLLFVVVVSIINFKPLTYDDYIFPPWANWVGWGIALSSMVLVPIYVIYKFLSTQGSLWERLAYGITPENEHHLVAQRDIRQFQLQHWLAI

Compound | extracellular neurotransmitter levels (dopamine, norepinephrine, serotonin) ([1]; 10 mg/kg s.c., striatum and prefrontal cortex) | extracellular dopamine concentrations in the striatum ([1]; 30 mg/kg s.c.) | extracellular norepinephrine concentrations in the prefrontal cortex ([1]; 30 mg/kg s.c.) | other transmitters investigated (extracellular levels) ([1]; 30 mg/kg s.c.) | Hill coefficient [2] | Hill coefficient [3] | Hill coefficient [4] | locomotor, rearing and stereotypical activities ([5]; 100 mg/kg SC, compared with 2 mg/kg amphetamine) | locomotor, rearing and stereotypical activities ([5]; 10, 30, 100 mg/kg SC single injection, 90 min post-injection) | percent accuracy during Phase II reversal training (Long-Evans rats; 3.0 mg/kg IP daily, one hour prior to training, vs vehicle) | number of sessions (trials) required to reach criteria in Phase II (Long-Evans rats; 3.0 mg/kg IP daily, vs vehicle) | percent accuracy during Phase II reversal training (Long-Evans rats; 10.0 mg/kg IP daily, one hour prior to training) | number of sessions (trials) required to reach criteria in Phase II (Long-Evans rats; 10.0 mg/kg IP daily, vs vehicle) | percent accuracy during Phase II reversal training (Long-Evans rats; 30.0 mg/kg IP daily, one hour prior to training, vs vehicle) | number of sessions (trials) required to reach criteria in Phase II (Long-Evans rats; 30.0 mg/kg IP daily, vs vehicle) | locomotor, rearing and stereotypical activities (wild-type mice) | locomotor, rearing and stereotypical activities ([5]; 2 mg/kg SC, relative to vehicle controls) | number of sessions (trials) required to reach criteria in Phase II (Long-Evans rats; [6]) | percent accuracy during Phase II reversal training (Long-Evans rats; [6])
NC(=O)OC[C@H](N)Cc1ccccc1 [Test Compound, O-carbamoyl-(D)-phenylalaninol] | no consistent effect | increases | increases | without having any significant affect | −2.28 ± 0.05 | −1.45 ± 0.34 | −0.77 ± 0.12 | suppressed activities more efficiently than amphetamine | selectively reduced activity of the KO mice in a dose-dependent manner; also recorded: reduced activities in a dose-dependent fashion | better accuracy scores | needed fewer trials to reach criterion levels of performance | lower than the 3.0, and 30.0 dose of test compound | did not differ from the vehicle group | better accuracy scores | needed fewer trials to reach criterion levels of performance |  |  |  | 
C[C@H](N)Cc1ccccc1 [amphetamine, d-amphetamine sulfate, reference compound] |  |  |  |  |  |  |  |  |  |  |  |  |  |  |  | increased locomotor, rearing and stereotypical activities | decreased them in KO animals | needed fewer trials to reach criterion levels of performance | better accuracy scores
